Data taken from patent US10556907B2 (AbbVie Inc., priority 2015, dated 2020).
Structures can show the parent of a compound that is named as a salt.

Key:
Assay in all cases: Method 1: intracellular Ca2+ release (FLIPR, Calcium 5) in recombinant CHO-K1 cells
Assay type in all cases: cell-based
human S1PR4 receptor = biological target: T1, human S1PR4 receptor (Homo sapiens, UniProt O95977); conditions: (1): determined with method 1; read-out: S1P4 EC50
T1 construct: host or cells: CHO-K1
T1 sequence (O95977 1-384): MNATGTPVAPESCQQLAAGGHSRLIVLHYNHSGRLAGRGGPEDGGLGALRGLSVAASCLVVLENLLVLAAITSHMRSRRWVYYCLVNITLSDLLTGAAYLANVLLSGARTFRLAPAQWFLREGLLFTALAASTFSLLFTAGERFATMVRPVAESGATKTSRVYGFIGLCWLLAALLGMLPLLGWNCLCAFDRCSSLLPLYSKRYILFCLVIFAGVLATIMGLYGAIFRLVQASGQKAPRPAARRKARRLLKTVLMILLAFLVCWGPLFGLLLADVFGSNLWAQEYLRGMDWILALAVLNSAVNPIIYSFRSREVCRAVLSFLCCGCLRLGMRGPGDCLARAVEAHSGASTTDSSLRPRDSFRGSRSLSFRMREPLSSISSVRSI
Outline: (§1)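 For antagonist mode, compounds were pre-incubated 10 min before phospho-fingolimod at EC80; in agonist mode, compounds were added directly to Calcium 5-loaded CHO-K1 cells co-expressing Gq/i5. Fluorescence was measured on FLIPR, and EC50 was fitted relative to the phospho-fingolimod curve.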

human S1PR1 receptor = biological target: T2, human S1PR1 receptor (Homo sapiens, UniProt P21453); conditions: (1): determined with method 1; read-out: S1P1 EC50
T2 construct: host or cells: CHO-K1
T2 sequence (P21453 whole entry): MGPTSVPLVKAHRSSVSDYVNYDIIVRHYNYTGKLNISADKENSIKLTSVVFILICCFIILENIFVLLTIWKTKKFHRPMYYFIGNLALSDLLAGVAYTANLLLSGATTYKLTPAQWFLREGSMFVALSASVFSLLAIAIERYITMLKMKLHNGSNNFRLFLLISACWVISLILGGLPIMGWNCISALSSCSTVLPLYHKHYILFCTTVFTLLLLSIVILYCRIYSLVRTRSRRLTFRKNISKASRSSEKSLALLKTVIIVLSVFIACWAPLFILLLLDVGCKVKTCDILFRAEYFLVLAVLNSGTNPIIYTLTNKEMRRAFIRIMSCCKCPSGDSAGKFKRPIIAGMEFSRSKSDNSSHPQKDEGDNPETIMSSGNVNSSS
Outline: as §1

human S1PR5 receptor = biological target: T3, human S1PR5 receptor (Homo sapiens, UniProt Q9H228); conditions: agonist potency, determined with method 1 (symbols A-D); read-out: S1P5 EC50 range
T3 construct: host or cells: CHO-K1
T3 sequence (Q9H228 whole entry): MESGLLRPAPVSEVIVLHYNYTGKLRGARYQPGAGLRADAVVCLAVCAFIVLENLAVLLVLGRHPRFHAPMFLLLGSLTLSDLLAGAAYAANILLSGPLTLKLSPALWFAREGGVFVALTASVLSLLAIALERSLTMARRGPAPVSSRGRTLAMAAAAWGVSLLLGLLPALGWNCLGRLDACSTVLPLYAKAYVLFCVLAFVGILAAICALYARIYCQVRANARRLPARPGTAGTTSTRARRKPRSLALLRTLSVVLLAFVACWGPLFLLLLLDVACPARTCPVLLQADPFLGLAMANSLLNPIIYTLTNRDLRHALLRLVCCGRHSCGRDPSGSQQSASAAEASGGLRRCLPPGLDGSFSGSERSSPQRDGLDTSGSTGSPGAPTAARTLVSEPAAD
Outline: as §1

human S1PR3 receptor = biological target: T4, human S1PR3 receptor (Homo sapiens, UniProt Q99500); conditions: (1): determined with method 1; read-out: S1P3 EC50
T4 construct: host or cells: CHO-K1
T4 sequence (Q99500 whole entry): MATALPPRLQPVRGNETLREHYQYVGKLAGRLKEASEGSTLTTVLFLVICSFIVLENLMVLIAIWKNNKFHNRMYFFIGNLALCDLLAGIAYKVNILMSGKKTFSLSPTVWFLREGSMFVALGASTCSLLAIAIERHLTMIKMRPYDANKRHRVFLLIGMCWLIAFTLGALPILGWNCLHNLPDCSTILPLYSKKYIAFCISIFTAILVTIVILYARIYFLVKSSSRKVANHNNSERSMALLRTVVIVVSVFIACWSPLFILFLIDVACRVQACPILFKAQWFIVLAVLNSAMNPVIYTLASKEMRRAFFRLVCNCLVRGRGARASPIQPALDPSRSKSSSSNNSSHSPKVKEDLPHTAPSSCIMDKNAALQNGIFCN
Outline: as §1

EC50 (human S1PR4 receptor) [nM]	EC50 (human S1PR1 receptor) [nM]	EC50 (human S1PR5 receptor) [nM]	EC50 (human S1PR3 receptor) [nM]	SMILES
> 1000	> 1000	10 to 100	> 1000	CC(CN1CCc2nc(-c3ccc(OCc4cc(Cl)cc(Cl)c4)cc3)ncc2C1)C(=O)O (single isomer, unassigned) [Compound 20, 3-(2-(4-((3,5-dichlorobenzyl)oxy)phenyl)-7,8-dihydropyrido[4,3-d]pyrimidin-6(5H)-yl)-2-methylpropanoic acid]
> 1000	> 1000	< 10	> 1000	O=C(O)CCN1CCc2cc(-c3ccc(OCc4cccc(F)c4)cc3)ncc2C1 [Compound 176, 3-(6-(4-((3-fluorobenzyl)oxy)phenyl)-3,4-dihydro-2,7-naphthyridin-2(1H)-yl)propanoic acid]
> 1000	> 1000	< 10	> 1000	Cc1cc(OC(F)(F)F)ccc1COc1ccc(-c2ccc3c(n2)CCN(CCC(=O)O)C3)cc1 [Compound 161, 3-(2-(4-((2-methyl-4-(trifluoromethoxy)benzyl)oxy)phenyl)-7,8-dihydro-1,6-naphthyridin-6(5H)-yl)propanoic acid]
> 1000	> 1000	10 to 100	> 1000	CC(CC(=O)O)CN1CCc2nc(-c3ccc(C(F)(F)Cc4ccc(Cl)cc4)cc3)ncc2C1 (stereo not drawn) [Compound 265, 4-(2-(4-(2-(4-chlorophenyl)-1,1-difluoroethyl)phenyl)-7,8-dihydropyrido[4,3-d]pyrimidin-6(5H)-yl)-3-methylbutanoic acid]
> 1000	> 1000	< 10	> 1000	O=C(O)CCN1CCc2nc(-c3ccc(OCc4cccc(Cl)c4)cc3)c(F)cc2C1 [Compound 189, 3-(2-(4-((3-chlorobenzyl)oxy)phenyl)-3-fluoro-7,8-dihydro-1,6-naphthyridin-6(5H)-yl)propanoic acid]
> 1000	> 1000	1000 to 10000	> 1000	O=C(O)C1CC(N2CCc3nc(C#Cc4cccc(Cl)c4)ncc3C2)C1 (stereo not drawn) [Compound 62, 3-(2-((3-chlorophenyl)ethynyl)-7,8-dihydropyrido[4,3-d]pyrimidin-6(5H)-yl)cyclobutanecarboxylic acid]
> 1000	> 1000	1000 to 10000	> 1000	O=C(O)C1CC(N2CCc3nc(Cc4c(F)cccc4F)ncc3C2)C1 (stereo not drawn) [Compound 53, 3-(2-(2,6-difluorobenzyl)-7,8-dihydropyrido[4,3-d]pyrimidin-6(5H)-yl)cyclobutanecarboxylic acid]
> 1000	> 1000	1000 to 10000	> 1000	CC(C)(CC(=O)O)CN1CCc2nc(-c3ccc(OCc4ccc(Cl)cc4)cc3)ncc2C1 [Compound 210, 4-(2-(4-((4-chlorobenzyl)oxy)phenyl)-7,8-dihydropyrido[4,3-d]pyrimidin-6(5H)-yl)-3,3-dimethylbutanoic acid]
> 1000	> 1000	< 10	> 1000	O=C(O)CCN1CCc2nc(-c3ccc(OCc4ccccc4OC(F)F)cc3)ccc2C1 [Compound 163, 3-(2-(4-((2-difluoromethoxybenzyl)oxy)phenyl)-7,8-dihydro-1,6-naphthyridin-6(5H)-yl)propanoic acid]
> 1000	> 1000	< 10	> 1000	Cc1ccc(COc2ccc(-c3ncc4c(n3)CCN(CCC(=O)O)C4)cc2)cc1C(F)(F)F [Compound 89, 3-(2-(4-((4-methyl-3-(trifluoromethyl)benzyl)oxy)phenyl)-7,8-dihydropyrido[4,3-d]pyrimidin-6(5H)-yl)propanoic acid]
> 1000	> 1000	< 10	> 1000	CC(CC(=O)O)CN1CCc2nc(-c3ccc(OCc4ccc(F)c(F)c4)cc3)ncc2C1 (stereo not drawn) [Compound 228, 4-(2-(4-((3,4-difluorobenzyl)oxy)phenyl)-7,8-dihydropyrido[4,3-d]pyrimidin-6(5H)-yl)-3-methylbutanoic acid]
> 1000	> 1000	100 to 1000	> 1000	O=C(O)CC1CC(N2CCc3nc(-c4ccc(OCc5ccc(Cl)cc5)cc4)ncc3C2)C1 (stereo not drawn) [Compound 2, 2-(3-(2-(4-((4-chlorobenzyl)oxy)phenyl)-7,8-dihydropyrido[4,3-d]pyrimidin-6(5H)-yl)cyclobutyl)acetic acid]
> 1000	< 1000	< 10	> 1000	CC(CC(=O)O)CN1CCc2nc(-c3ccc(OCc4ccccc4F)cc3)ncc2C1 (stereo not drawn) [Compound 235, 4-[2-[4-[(2-fluorophenyl)methoxy]phenyl]-7,8-dihydro-5H-pyrido[4,3-d]pyrimidin-6-yl]-3-methyl-butanoic acid 2,2,2-trifluoroacetic acid salt]
> 1000	> 1000	< 10	> 1000	O=C(O)CCCN1CCc2nc(-c3ccc(OCc4ccc(Cl)cc4)cc3)ncc2C1 [Compound 40, 4-(2-(4-((4-chlorobenzyl)oxy)phenyl)-7,8-dihydropyrido[4,3-d]pyrimidin-6(5H)-yl)butanoic acid]
> 1000	> 1000	< 10	> 1000	O=C(O)CCN1CCc2nc(-c3ccc(OCc4cccc(OC(F)(F)F)c4)cc3)ncc2C1 [Compound 82, 3-(2-(4-((3-(trifluoromethoxy)benzyl)oxy)phenyl)-7,8-dihydropyrido[4,3-d]pyrimidin-6(5H)-yl)propanoic acid]
> 1000	> 1000	< 10	> 1000	CC(CC(=O)O)CN1CCc2nc(-c3ccc(OCc4ccc(Cl)cc4)cc3)ncc2C1 (single isomer, unassigned; (+)) [Compound 212, (+)-4-(2-(4-((4-chlorobenzyl)oxy)phenyl)-7,8-dihydropyrido[4,3-d]pyrimidin-6(5H)-yl)-3-methylbutanoic acid]
> 1000	> 1000	1000 to 10000	> 1000	O=C(O)C1CC(N2CCc3nc(C#Cc4ccccc4Cl)ncc3C2)C1 (stereo not drawn) [Compound 60, 3-(2-((2-chlorophenyl)ethynyl)-7,8-dihydropyrido[4,3-d]pyrimidin-6(5H)-yl)cyclobutanecarboxylic acid]
> 1000	> 1000	1000 to 10000	> 1000	O=C(O)C1CC(N2CCc3nc(C#Cc4cc(F)cc(F)c4)ccc3C2)C1 (stereo not drawn) [Compound 127, 3-(2-((3,5-difluorophenyl)ethynyl)-7,8-dihydro-1,6-naphthyridin-6(5H)-yl)cyclobutanecarboxylic acid]
> 1000	> 1000	< 10	> 1000	O=C(O)CCN1CCc2nc(-c3ccc(OCc4cccc(F)c4)cc3)c(F)cc2C1 [Compound 193, 3-(2-(4-((3-fluorobenzyl)oxy)phenyl)-3-fluoro-7,8-dihydro-1,6-naphthyridin-6(5H)-yl)propanoic acid]
> 1000	< 1000	< 10	> 1000	CC(CC(=O)O)CN1CCc2nc(-c3ccc(OCc4cccc(F)c4F)cc3)ncc2C1 (stereo not drawn) [Compound 226, 4-[2-[4-[(2,3-difluorophenyl)methoxy]phenyl]-7,8-dihydro-5H-pyrido[4,3-d]pyrimidin-6-yl]-3-methyl-butanoic acid 2,2,2-trifluoroacetic acid salt]
> 1000	> 1000	10 to 100	> 1000	C[C@@H](CC(=O)O)CN1CCc2nc(-c3ccc(C(F)(F)Cc4ccc(Cl)cc4)cc3)ncc2C1 (single isomer, unassigned) [Compound 266, 4-(2-(4-(2-(4-chlorophenyl)-1,1-difluoroethyl)phenyl)-7,8-dihydropyrido[4,3-d]pyrimidin-6(5H)-yl)-3-methylbutanoic acid]
> 1000	> 1000	10 to 100	> 1000	Cc1cc(COc2ccc(-c3ccc4c(n3)CCN(CCC(=O)O)C4)cc2)cc(OC(F)(F)F)c1 [Compound 160, 3-(2-(4-((3-trifluoromethoxy-5-(methyl)benzyl)oxy)phenyl)-7,8-dihydro-1,6-naphthyridin-6(5H)-yl)propanoic acid]
> 1000	> 1000	10 to 100	> 1000	CC(CC(=O)O)CN1CCc2nc(-c3ccc(OCc4cccc(Cl)c4Cl)cc3)ncc2C1 (stereo not drawn) [Compound 268, 4-[2-[4-[(2,3-dichlorophenyl)methoxy]phenyl]-7,8-dihydro-5H-pyrido[4,3-d]pyrimidin-6-yl]-3-methyl-butanoic acid 2,2,2-trifluoroacetic acid salt]
> 1000	> 1000	1000 to 10000	> 1000	CC(C)c1ccc(C#Cc2ccc3c(n2)CCN(C2CC(C(=O)O)C2)C3)cc1 (stereo not drawn) [Compound 124, 3-(2-((4-isopropylphenyl)ethynyl)-7,8-dihydro-1,6-naphthyridin-6(5H)-yl)cyclobutanecarboxylic acid]
